Assay results published in ChEMBL document CHEMBL1124202, “Synthesis and evaluation of multisubstrate inhibitors of an oncogene-encoded tyrosine-specific protein kinase. 2” (J Med Chem, 1988).

target: T1, Tyrosine-protein kinase transforming protein Abl (Abelson murine leukemia virus, UniProt P00521); assay: Inhibition of p60v-abl tyrosine kinase from Abelson murine leukemia virus
T1 sequence (P00521 whole entry): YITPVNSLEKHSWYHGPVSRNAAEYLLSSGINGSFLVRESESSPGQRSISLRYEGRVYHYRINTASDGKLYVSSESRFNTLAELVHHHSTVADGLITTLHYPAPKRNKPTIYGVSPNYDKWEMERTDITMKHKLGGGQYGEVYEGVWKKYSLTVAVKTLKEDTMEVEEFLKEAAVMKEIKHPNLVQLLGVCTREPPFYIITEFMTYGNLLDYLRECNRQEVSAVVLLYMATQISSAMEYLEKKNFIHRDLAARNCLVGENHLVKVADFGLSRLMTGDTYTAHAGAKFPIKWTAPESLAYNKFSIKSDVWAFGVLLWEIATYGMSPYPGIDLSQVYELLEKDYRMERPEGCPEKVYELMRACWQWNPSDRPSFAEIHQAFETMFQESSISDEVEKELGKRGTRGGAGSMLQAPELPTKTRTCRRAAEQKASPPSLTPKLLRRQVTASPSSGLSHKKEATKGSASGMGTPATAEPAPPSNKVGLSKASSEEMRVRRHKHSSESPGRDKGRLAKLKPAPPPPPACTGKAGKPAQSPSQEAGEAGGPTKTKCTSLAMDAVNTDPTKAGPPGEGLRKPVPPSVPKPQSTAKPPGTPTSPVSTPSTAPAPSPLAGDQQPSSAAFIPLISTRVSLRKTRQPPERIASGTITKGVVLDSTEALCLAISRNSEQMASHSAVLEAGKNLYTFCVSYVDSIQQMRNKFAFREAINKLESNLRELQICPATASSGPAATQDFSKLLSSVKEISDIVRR

Row | Compound | IC50 [µM]
1 | Cc1ccc(NP(=O)(O)OP(=O)(O)OP(=O)(O)OP(=O)(O)OC[C@H]2O[C@@H](n3cnc4c(N)ncnc43)[C@H](O)[C@@H]2O)cc1 | 16
2 | CC(=O)NC(Cc1ccc(NP(=O)(O)OP(=O)(O)OP(=O)(O)OP(=O)(O)OC[C@H]2O[C@@H](n3cnc4c(N)ncnc43)[C@H](O)[C@@H]2O)cc1)C(N)=O (stereo partly drawn) | 110
3 | Nc1ncnc2c1ncn2[C@@H]1O[C@H](COP(=O)(O)OP(=O)(O)OP(=O)(O)Oc2ccccc2)[C@@H](O)[C@H]1O | 13
4 | Cc1ccc(NP(=O)(O)OP(=O)(O)OP(=O)(O)OC[C@H]2O[C@@H](n3cnc4c(N)ncnc43)[C@H](O)[C@@H]2O)cc1 | 150
5 | CC(=O)NC(Cc1ccc(NP(=O)(O)OP(=O)(O)OP(=O)(O)OC[C@H]2O[C@@H](n3cnc4c(N)ncnc43)[C@H](O)[C@@H]2O)cc1)C(N)=O (stereo partly drawn) | 44
6 | Nc1ncnc2c1ncn2[C@@H]1O[C@H](COP(=O)(O)OP(=O)(O)OP(=O)(O)OP(=O)(O)Oc2ccccc2)[C@@H](O)[C@H]1O | 41
7 | CC(=O)NCCNP(=O)(O)OP(=O)(O)OP(=O)(O)OC[C@H]1O[C@@H](n2cnc3c(N)ncnc32)[C@H](O)[C@@H]1O | 25
8 | COc1ccc(CNP(=O)(O)OP(=O)(O)OP(=O)(O)OC[C@H]2OC(n3cnc4c(N)ncnc43)[C@H](O)[C@@H]2O)cc1 (stereo partly drawn) | 90
